Data set [1] in a line: Guest molecule concentration after incubation in initial medium without polymer (Comparative Example 1). The format is physicochemical. As to conditions: 37° C., 0.05% SDS in pH 6.8 phosphate buffer. An outline of the steps: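 Dissolved guest content measured by HPLC of centrifuged supernatants (37° C., 13000 rpm, 5 min) sampled at 0.5 h, 3 h and 6 h. Incubation was polymer-free at 37° C.±0.5° C. in buffers of pH 2.0-7.4; nominal loading was set by maximum clinical dose.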

A short description of data set [2]: Binary supramolecular self-assembly systems of polymer and target: guest concentration over incubation time (Comparative Example 2). The format is physicochemical. As to conditions: for Concentration of guest molecule in solution / Times that of the initial medium: 6 h. The procedure: Experiments were conducted according to the steps in Comparative Example 1, and quantitative analysis was carried out using the analytical method for each target to investigate the regulation ability […] stacking.

Data set [3] in a line: Binary (carrier), ternary and quaternary supramolecular self-assembly systems of polymer, carrier building block and target: guest concentration over incubation time (Examples 1-56). The format is physicochemical. As to conditions: 6 h. Put shortly: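 Targets were incubated at 37 °C in pH 2.0–7.4 buffers with 0.5% polymer alone or with carrier building blocks, after 0.5 h sonication for ternary systems, and shaken at 200 rpm. Samples at 0.5–6 h were centrifuged and diluted ≥10-fold, and dissolved target was quantified by HPLC; surfactant was added if needed.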

The conditions of data set [4]: cited from earlier work.
The conditions of data set [5]: cited from earlier work. This is another data set of the same source.
For data set [6] the following is noted: human use; bw: body weight; cited from earlier work.
The mark [7] stands for this setting: quaternary: 0.05% 314 + 0.25% 201.
Setting [8] is: quaternary: 0.05% 314 + 0.25% 202.
Setting [9] is: quaternary: 0.05% 314 + 0.25% 203.
The mark [10] stands for this setting: quaternary: 0.05% 314 + 0.25% 204.
Where [11] appears, read: quaternary: 0.05% 314 + 0.25% 205.

Where a name gives a salt, the structure may show the parent alone. Read-outs that look alike come from different tables or passages of the source.

In the case of `C=C(C)[C@@H]1CCC(C)=C[C@H]1c1c(O)cc(CCCCC)cc1O` [Cannabidiol], the “Concentration of guest molecule measured after different incubated time” value came to 11.4 µg/mL in data set [1] (0.5 h), 11.8 µg/mL in data set [1] (3 h) and 8.5 µg/mL in data set [1] (6 h). The “Concentration of the target in the solution measured after different incubation time” value (“Concentration … after different incubation time” below) in data set [2] (binary system with 0.5% polymer 101, incubation 0.5 h) was 282.6 µg/mL; in data set [2] (binary system with 0.5% polymer 101, incubation 3 h), 293.7 µg/mL; in data set [2] (binary system with 0.5% polymer 101, incubation 6 h), 342.5 µg/mL; in data set [2] (binary system with 0.5% polymer 102, incubation 0.5 h), 307.3 µg/mL; in data set [2] (binary system with 0.5% polymer 102, incubation 3 h) it was 323.6 µg/mL; in data set [2] (binary system with 0.5% polymer 102, incubation 6 h), 333.1 µg/mL. Moreover, the “Concentration … after different incubation time” value in data set [2] (binary system with 0.5% polymer 103, incubation 0.5 h) amounted to 54.8 µg/mL; in data set [2] (binary system with 0.5% polymer 103, incubation 3 h) it was 55.1 µg/mL; in data set [2] (binary system with 0.5% polymer 103, incubation 6 h) it was 55.7 µg/mL; in data set [2] (binary system with 0.5% polymer 106, incubation 0.5 h), 148.1 µg/mL; in data set [2] (binary system with 0.5% polymer 106, incubation 3 h), 149.4 µg/mL; in data set [2] (binary system with 0.5% polymer 106, incubation 6 h), 155.7 µg/mL. Besides, the “Concentration … after different incubation time” value is 109.6 µg/mL in data set [2] (binary system with 0.5% polymer 107, incubation 0.5 h); 97.2 µg/mL in data set [2] (binary system with 0.5% polymer 107, incubation 3 h); 95.7 µg/mL in data set [2] (binary system with 0.5% polymer 107, incubation 6 h); 168.9 µg/mL in data set [2] (binary system with 0.5% polymer 110, incubation 0.5 h); 8.6 µg/mL in data set [2] (binary system with 0.5% polymer 110, incubation 3 h); 7.3 µg/mL in data set [2] (binary system with 0.5% polymer 110, incubation 6 h). Moreover, the “Concentration of guest molecule in solution” value is 342.5 µg/mL in data set [2] (binary: 0.25% 101); 55.7 µg/mL in data set [2] (binary: 0.25% 103E3); 155.7 µg/mL in data set [2] (binary: 0.25% 106 (K30)); 732.2 µg/mL in data set [3] (setting [7]); 399.4 µg/mL in data set [3] (setting [8]); 648.3 µg/mL in data set [3] (setting [9]). Besides, the “Concentration of guest molecule in solution” value in data set [3] (setting [10]) was 725.0 µg/mL; in data set [3] (setting [11]), 581.7 µg/mL; in data set [3] (ternary: 102M + 0.1% 310) it was 580.1 µg/mL; in data set [3] (ternary: 102M + 0.25% 310) it was 481.2 µg/mL. Also, the “Times that of the initial medium” value in data set [2] (binary: 0.25% 101) is listed as 40 times; in data set [2] (binary: 0.25% 106 (K30)), 18 times; in data set [3] (setting [7]), 86 times; in data set [3] (setting [8]), 47 times; in data set [3] (setting [9]), 76 times; in data set [3] (setting [10]) it was 85 times. In data set [3] (setting [11]), the “Times that of the initial medium” value is on record as 68 times. Further, the “Concentration in the system” value in data set [4] (200 mM methyl-beta-cyclodextrin, literature) is 25.5 mg/mL; in data set [4] (about 5-10 mM methyl-beta-cyclodextrin, literature curve) it was “lower than 1 mg/mL”. In addition, the “Best result reported by the literature (concentration)” value in data set [4] (International Journal of Pharmaceutics 589 (2020) 119812) was 150 µg/mL. In addition, the “LogD7.4 or Log P” value in data set [5] is given as 6.32.

On to `C=C1C[C@@]23CC[C@H]4[C@@](C)(CCC[C@@]4(C)C(=O)O[C@@H]4O[C@H](CO)[C@@H](O)[C@H](O)[C@H]4O[C@@H]4O[C@H](CO)[C@@H](O)[C@H](O)[C@H]4O)[C@@H]2CC[C@]1(O[C@@H]1O[C@H](CO)[C@@H](O)[C@H](O[C@@H]2O[C@H](CO)[C@@H](O)[C@H](O)[C@H]2O)[C@H]1OC1O[C@H](CO)[C@@H](O)[C@H](O)[C@H]1O)C3` (stereo partly shown) [compound 320, Rebaudioside D], for which, in data set [6], the “Acceptable daily intake (ADI)” value is given as 3-5 mg/kg bw/day.

Isoquercitrin [compound 304]: in data set [6], the “Acceptable daily intake (ADI)” value is listed as 3.3 mg/kg bw/day.

With `C=C1C[C@@]23CC[C@H]4[C@@](C)(CCC[C@@]4(C)C(=O)O)[C@@H]2CC[C@]1(O[C@@H]1O[C@H](CO)[C@@H](O)[C@H](O[C@@H]2O[C@H](CO)[C@@H](O)[C@H](O)[C@H]2O)[C@H]1O[C@@H]1O[C@H](CO)[C@@H](O)[C@H](O)[C@H]1O)C3` [compound 307, Rebaudioside B], in data set [6], the “Acceptable daily intake (ADI)” value was 6 mg/kg bw/day.

With `CC1(C)[C@@H](O[C@H]2O[C@H](C(=O)O)[C@@H](O)[C@H](O)[C@H]2O[C@@H]2O[C@H](C(=O)O)[C@@H](O)[C@H](O)[C@H]2O)CC[C@]2(C)[C@H]3C(=O)C=C4[C@@H]5C[C@@](C)(C(=O)O)CC[C@]5(C)CC[C@@]4(C)[C@]3(C)CC[C@@H]12` [compound 314, Glycyrrhizic acid and its ammonium salt], in data set [6], the “Acceptable daily intake (ADI)” value was 2 mg/kg bw/day.
